According to patent publication US20150118329A1, “METHOD FOR PROMOTING ADIPONECTIN PRODUCTION, PREVENTION AND TREATMENT OF HYPOADIPONECTINEMIA” (AMINO UP CHEMICAL CO., LTD., priority 2011, published 2015):

These compounds were tested on adipocytes derived from a patient with diabetes, who was severely obese (assay: Screening of functional food product materials (samples 1 to 71) for APR in adipocytes derived from a severely obese diabetic patient). Conditions: concentration in culture medium 10 nM; 48 hour value divided by 96 hour value.
Format: cell-based, human
Experimental: Fat tissues were harvested from remainder tissues removed at the time of surgery of a subject (a patient who was severely obese and had diabetes) who provided informed consent. These fat tissues were treated in the same manner as in Example 1 and used in screening for the adiponectin production-promoting action of functional food product materials (samples 1 to 71).
The samples 1 to 71 (Table 1 and Table 2) were suspended and dissolved in water, heated water (80° C.) or DMSO, and then stirred for 30 minutes, followed by filter filtration […]) for preparation thereof. The sample 25 was prepared by filter filtration (Φ0.45 μm) without carrying out dilution. Further, with regard to the samples 1 to 18, each of the samples was made with water to 1% suspension or aqueous solution, followed by filter filtration (Φ0.45 μm) for preparation thereof. Botanbouhu extract of the samples 58 and 59 was prepared in the same manner as in Example 2. Table 1 and Table 2 show material, solvent and concentration in the culture medium of samples 1 to 71 (samples 6 to 8 “Mixture of three types of peptides” (manufactured by Katano Bussan) is a mixture of peptides derived from dried kelp or konbu, sardine and pearl oyster).
Eight days after DM-2 treatment, the medium was changed to AM-1 medium with each of the samples 1 to 71 being added and 48 hour value and 96 hour value were measured in the same manner as described in Example 3. APR (Adiponectin Production Ratio; adiponectin secretion promoting index) was calculated by dividing the 48 hour value by the 96 hour value. The results are shown in Table 1 and Table 2 and FIG. 4A.

Q: With CCC1=C(C)CN(C(=O)NCCc2ccc(S(=O)(=O)NC(=O)N[C@H]3CC[C@H](C)CC3)cc2)C1=O [Sample 70, Glimepyride] as the compound, how does the APR read?
A: The APR was 0.82.

Q: With CC(C)(Oc1ccc(CCNC(=O)c2ccc(Cl)cc2)cc1)C(=O)O [Sample 65, Bezafibrate] as the compound, how does the APR read?
A: Its APR is 0.75.

Q: With CCc1ccc(CCOc2ccc(CC3SC(=O)NC3=O)cc2)nc1 (stereo not shown) [Sample 60, Pioglitazone] as the compound, how does the APR read?
A: The APR was 0.96.

Q: CN(C)C(=N)N=C(N)N [Sample 71, Metformin] was tested. Which APR did it give?
A: The APR was 0.53.

Q: With CCCc1nc(C(C)(C)O)c(C(=O)O)n1Cc1ccc(-c2ccccc2-c2nnn[nH]2)cc1 [Sample 69, Olmesartan] as the compound, how does the APR read?
A: Its APR is 0.00.

Q: For COC(=O)[C@@H]1CC2=CC(=O)CC[C@]2(C)[C@@]23O[C@@H]2C[C@@]2(C)[C@@H](CC[C@@]24CCC(=O)O4)[C@H]13 [Sample 64, Eplerenone], which APR is on record?
A: Its APR is 0.62.

Q: Which APR does the source give for Cc1c(C(=O)NN2CCCCC2)nn(-c2ccc(Cl)cc2Cl)c1-c1ccc(Cl)cc1 [Sample 62, Rimonabant] here?
A: Its APR is 0.69.

Q: With CC(=O)S[C@@H]1CC2=CC(=O)CC[C@]2(C)[C@H]2CC[C@@]3(C)[C@@H](CC[C@@]34CCC(=O)O4)[C@H]12 [Sample 63, Spironolactone] as the compound, how does the APR read?
A: Its APR is 0.60.

Q: How did the APR turn out when O=S(=O)(c1cccc2cnccc12)N1CCCNCC1 [Sample 66, Fasudil] was run?
A: Its APR is 0.58.

Q: For CCCc1nc2c(C)cc(-c3nc4ccccc4n3C)cc2n1Cc1ccc(-c2ccccc2C(=O)O)cc1 [Sample 61, Telmisartan], which APR is on record?
A: Its APR is 0.54.

Same assay, conditions: concentration in culture medium 0.067%; 48 hour value divided by 96 hour value

Q: For CC1=C(/C=C/C(C)=C/C=C/C(C)=C/C=C/C=C(C)/C=C/C=C(C)/C=C/C2=C(C)C(=O)[C@@H](O)CC2(C)C)C(C)(C)C[C@H](O)C1=O [Sample 37, Astaxanthin], which APR is on record?
A: Its APR is 0.34.

Q: How did the APR turn out when Fucoxanthin [Sample 36] was run?
A: Its APR is 0.34.

Q: How did the APR turn out when Hyaluronic acid [Sample 31] was run?
A: Its APR is 0.36.
